Data from PMC9841288 (Journal of Translational Autoimmunity, 2022).

Legend:
CLK1 = CLK1 (Homo sapiens, UniProt P49759); assay: KINOMEscan competition binding, single dose […]
DYRK1A = DYRK1A (Homo sapiens, UniProt Q13627); assay: radiometric HotSpot kinase assay, […] ATP; assay type: biochemical
ALK = ALK (Homo sapiens, UniProt Q9UM73); assay: KINOMEscan competition binding, single dose […]
DYRK1B = DYRK1B (Homo sapiens, UniProt Q9Y463); assay: KINOMEscan competition binding, single dose […]
ALK(C1156Y) = ALK(C1156Y) (Homo sapiens, UniProt Q9UM73, C1156Y); assay: KINOMEscan competition binding, single dose […]
MYLK = MYLK (Homo sapiens, UniProt Q15746); assay: KINOMEscan competition binding, single dose […]
CLK2 = CLK2 (Homo sapiens, UniProt P49760); assay: KINOMEscan competition binding, single dose […]

ALK, sequence (Q9UM73 19-1620): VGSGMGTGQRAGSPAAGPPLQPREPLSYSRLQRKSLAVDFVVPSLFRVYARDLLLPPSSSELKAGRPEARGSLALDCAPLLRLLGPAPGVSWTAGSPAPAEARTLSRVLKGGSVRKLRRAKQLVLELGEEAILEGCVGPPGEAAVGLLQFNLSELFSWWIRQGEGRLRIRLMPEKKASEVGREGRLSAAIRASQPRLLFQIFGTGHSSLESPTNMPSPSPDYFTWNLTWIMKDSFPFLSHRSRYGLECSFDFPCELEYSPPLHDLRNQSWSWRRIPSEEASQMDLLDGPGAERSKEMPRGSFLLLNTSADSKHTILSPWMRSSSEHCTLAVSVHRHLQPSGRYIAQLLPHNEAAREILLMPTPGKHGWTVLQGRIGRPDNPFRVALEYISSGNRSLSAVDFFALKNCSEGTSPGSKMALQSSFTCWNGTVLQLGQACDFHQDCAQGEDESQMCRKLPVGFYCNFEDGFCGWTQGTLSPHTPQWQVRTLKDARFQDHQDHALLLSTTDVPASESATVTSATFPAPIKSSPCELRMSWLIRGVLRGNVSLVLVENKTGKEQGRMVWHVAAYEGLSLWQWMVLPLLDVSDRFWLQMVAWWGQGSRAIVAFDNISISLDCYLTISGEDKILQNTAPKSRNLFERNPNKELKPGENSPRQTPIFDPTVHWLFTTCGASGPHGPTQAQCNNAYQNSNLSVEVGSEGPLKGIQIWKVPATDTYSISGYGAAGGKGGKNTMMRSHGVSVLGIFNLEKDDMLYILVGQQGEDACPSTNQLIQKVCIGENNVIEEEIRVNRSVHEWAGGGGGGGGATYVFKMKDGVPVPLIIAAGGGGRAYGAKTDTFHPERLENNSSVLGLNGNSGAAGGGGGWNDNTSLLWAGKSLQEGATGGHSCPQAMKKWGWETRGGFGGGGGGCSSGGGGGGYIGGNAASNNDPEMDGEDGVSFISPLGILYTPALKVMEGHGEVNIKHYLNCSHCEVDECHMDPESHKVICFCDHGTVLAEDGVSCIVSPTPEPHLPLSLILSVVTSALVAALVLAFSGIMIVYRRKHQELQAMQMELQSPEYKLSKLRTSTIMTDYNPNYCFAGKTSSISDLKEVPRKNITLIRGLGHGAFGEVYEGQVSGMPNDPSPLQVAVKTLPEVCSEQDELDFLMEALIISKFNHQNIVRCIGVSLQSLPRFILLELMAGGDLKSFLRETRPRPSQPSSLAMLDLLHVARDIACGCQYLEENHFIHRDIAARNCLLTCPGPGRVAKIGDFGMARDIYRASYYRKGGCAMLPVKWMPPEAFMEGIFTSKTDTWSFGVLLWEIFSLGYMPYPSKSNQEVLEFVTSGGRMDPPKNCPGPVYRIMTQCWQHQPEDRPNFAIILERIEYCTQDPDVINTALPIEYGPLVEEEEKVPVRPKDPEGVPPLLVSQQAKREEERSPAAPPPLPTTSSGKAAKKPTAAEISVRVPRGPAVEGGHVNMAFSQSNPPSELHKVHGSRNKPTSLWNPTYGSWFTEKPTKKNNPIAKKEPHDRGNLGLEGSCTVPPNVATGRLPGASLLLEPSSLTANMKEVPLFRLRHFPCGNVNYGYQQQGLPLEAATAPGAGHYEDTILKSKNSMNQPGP
MYLK, sequence (Q15746 whole entry): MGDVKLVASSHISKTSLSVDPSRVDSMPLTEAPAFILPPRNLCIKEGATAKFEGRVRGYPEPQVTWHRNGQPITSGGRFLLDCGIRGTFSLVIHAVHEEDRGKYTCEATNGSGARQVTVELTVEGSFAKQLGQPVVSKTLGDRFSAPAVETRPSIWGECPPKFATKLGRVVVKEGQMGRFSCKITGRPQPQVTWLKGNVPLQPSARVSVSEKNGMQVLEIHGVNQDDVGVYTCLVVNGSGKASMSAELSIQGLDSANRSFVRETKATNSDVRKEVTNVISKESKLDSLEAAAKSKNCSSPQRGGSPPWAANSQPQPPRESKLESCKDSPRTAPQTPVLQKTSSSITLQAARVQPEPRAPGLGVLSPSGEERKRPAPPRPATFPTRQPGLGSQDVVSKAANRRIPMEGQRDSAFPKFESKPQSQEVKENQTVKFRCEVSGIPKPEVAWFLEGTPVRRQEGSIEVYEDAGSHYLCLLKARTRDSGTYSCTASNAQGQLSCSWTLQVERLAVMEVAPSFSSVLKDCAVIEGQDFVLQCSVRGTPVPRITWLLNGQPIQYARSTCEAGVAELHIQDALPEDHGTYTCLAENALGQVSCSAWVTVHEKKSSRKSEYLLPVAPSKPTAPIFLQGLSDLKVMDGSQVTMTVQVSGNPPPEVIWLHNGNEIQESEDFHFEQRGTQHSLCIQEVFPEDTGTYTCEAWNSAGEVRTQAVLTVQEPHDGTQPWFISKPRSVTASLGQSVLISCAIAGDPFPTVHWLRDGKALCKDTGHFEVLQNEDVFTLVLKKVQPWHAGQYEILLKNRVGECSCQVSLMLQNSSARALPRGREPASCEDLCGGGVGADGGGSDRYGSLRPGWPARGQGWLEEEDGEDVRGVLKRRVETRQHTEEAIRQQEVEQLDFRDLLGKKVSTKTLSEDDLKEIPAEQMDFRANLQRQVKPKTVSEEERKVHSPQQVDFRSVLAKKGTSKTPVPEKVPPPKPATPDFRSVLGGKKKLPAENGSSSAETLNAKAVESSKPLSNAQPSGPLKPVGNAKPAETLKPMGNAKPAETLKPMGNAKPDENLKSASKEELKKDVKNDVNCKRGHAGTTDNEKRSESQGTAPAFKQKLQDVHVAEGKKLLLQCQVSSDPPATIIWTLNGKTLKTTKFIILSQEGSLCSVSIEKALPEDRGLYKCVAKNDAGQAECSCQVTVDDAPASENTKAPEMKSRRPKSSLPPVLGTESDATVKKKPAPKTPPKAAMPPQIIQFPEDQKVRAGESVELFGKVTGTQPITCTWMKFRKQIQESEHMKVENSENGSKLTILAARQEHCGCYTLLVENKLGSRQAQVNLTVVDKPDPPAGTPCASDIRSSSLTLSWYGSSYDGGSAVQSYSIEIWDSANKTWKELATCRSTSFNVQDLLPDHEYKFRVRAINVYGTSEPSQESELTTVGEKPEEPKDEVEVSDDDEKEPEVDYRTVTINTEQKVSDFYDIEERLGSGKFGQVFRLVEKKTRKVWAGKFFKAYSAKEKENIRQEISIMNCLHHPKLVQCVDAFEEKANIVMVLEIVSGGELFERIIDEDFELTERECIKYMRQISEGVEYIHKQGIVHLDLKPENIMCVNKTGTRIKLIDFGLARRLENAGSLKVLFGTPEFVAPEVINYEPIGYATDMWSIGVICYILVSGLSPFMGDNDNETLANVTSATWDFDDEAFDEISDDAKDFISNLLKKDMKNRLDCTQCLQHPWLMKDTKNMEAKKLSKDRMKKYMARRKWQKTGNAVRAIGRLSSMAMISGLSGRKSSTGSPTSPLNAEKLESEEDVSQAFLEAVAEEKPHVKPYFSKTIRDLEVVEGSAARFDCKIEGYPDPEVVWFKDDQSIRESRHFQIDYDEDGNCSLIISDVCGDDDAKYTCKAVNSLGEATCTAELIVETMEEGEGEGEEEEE
ALK(C1156Y), sequence (Q9UM73 1093-1411 C1156Y limits assumed): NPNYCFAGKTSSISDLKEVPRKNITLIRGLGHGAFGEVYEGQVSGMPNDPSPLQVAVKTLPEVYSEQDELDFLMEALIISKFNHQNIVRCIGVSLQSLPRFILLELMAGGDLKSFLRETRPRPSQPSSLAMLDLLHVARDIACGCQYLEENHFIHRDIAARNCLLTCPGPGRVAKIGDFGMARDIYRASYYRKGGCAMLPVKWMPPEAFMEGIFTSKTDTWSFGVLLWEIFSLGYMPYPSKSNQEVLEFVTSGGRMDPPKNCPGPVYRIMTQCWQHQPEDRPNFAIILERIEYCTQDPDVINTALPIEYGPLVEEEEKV
DYRK1B, sequence (Q9Y463 whole entry): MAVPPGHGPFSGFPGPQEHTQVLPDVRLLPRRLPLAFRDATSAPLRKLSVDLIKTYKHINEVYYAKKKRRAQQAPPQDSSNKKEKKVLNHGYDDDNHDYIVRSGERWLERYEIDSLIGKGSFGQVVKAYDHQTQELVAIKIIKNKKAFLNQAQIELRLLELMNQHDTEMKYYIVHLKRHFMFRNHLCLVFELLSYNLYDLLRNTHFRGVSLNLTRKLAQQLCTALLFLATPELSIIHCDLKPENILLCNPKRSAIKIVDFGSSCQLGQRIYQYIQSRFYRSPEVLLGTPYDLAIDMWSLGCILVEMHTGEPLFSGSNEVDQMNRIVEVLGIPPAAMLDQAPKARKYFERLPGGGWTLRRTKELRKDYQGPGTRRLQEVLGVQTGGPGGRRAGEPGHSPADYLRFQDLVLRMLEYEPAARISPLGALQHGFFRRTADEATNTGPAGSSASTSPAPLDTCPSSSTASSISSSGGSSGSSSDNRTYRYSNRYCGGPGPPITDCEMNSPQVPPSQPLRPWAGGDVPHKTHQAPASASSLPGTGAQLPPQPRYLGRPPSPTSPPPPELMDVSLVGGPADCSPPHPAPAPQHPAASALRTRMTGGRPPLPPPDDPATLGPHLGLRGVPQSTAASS
CLK1, sequence (P49759 whole entry): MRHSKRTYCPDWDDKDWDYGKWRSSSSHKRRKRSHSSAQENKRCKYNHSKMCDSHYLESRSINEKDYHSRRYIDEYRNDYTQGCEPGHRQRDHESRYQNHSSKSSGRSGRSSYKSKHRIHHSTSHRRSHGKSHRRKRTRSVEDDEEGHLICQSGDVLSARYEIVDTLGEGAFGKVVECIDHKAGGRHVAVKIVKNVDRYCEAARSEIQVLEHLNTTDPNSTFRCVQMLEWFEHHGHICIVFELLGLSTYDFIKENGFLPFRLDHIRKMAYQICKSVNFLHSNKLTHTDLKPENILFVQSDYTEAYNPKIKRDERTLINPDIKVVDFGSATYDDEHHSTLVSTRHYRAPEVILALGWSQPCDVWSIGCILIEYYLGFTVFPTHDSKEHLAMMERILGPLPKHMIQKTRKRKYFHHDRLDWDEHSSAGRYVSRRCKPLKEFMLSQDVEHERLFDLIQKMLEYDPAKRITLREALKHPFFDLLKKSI

% of control unbound at 1 μM (CLK1): 1.1
IC50 (DYRK1A): 2.9 nM
% of control unbound at 1 μM (ALK): 3.5
% of control unbound at 1 μM (DYRK1B): 1.8
% of control unbound at 1 μM (ALK(C1156Y)): 2.5
% of control unbound at 1 μM (MYLK): 7.8
% of control unbound at 1 μM (CLK2): 3.3
Substance: FRTX-02
